The values below come from publication PMC10296591, “Potent GST Ketosteroid Isomerase Activity Relevant to Ecdysteroidogenesis in the Malaria Vector Anopheles gambiae” (Biomolecules, 2023).

What all share (format): biochemical
For test [1], the target named is T1, Nobo (Anopheles gambiae, UniProt Q8WQJ5).
T1 construct: gene GSTe8
T1 sequence (Q8WQJ5 1-217): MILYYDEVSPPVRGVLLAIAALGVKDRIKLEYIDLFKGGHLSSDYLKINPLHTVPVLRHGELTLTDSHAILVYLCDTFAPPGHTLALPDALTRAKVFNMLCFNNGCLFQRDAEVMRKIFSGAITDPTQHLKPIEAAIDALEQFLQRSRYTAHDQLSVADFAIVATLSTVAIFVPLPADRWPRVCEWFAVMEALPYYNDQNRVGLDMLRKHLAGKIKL
In words: spectrophotometric specific activity of purified enzyme.

Test [2] has as its target T1, Nobo. In words: steady-state kinetics of double-bond isomerization by purified enzyme (kcat/Km).
In test [3] the target is T2, Nobo D111N (Anopheles gambiae, UniProt Q8WQJ5, D111N).
T2 construct: gene GSTe8; N-terminal hexahistidine tag
In words: spectrophotometric inhibition assay of purified mutant enzyme with DCNB and glutathione.

For test [4], the target named is T1, Nobo. Put plainly: spectrophotometric inhibition assay of purified enzyme with DCNB and glutathione.

Molecules are shown by their SMILES.

On to `O=[N+]([O-])c1ccc(Cl)c([N+](=O)[O-])c1` [CDNB, 1-chloro-2,4-dinitribenzene], for which the specific activity in test [1] came to 24.7 ± 3.4 μmol/min per mg. Same read-out and setting: for `S=C=NCCc1ccccc1` [PEITC, phenethyl isothiocyanate] the value was 0.4 ± 0.1 μmol/min per mg. For the compound `C[C@]12CCC(=O)CC1=CC[C@@H]1[C@@H]2CC[C@]2(C)C(=O)CC[C@@H]12` [5-AD, 5-androsten-3,17-dione], the “steady-state kinetics of double-bond isomerization by purified enzyme (kcat/Km)” value in test [2] is “(6.9 ± 0.3) × 10^6 M^−1s^−1”.

In test [1], `O=[N+]([O-])c1ccc(Cl)c(Cl)c1` [DCNB, 1,2-dichloro-4-nitrobenzene] yielded a specific activity of 16.4 ± 1.9 μmol/min per mg. Still for that read-out and setting: next, `CC(C)(OO)c1ccccc1` [CuOOH, cumene hydroperoxide]: 5.0 ± 0.5 μmol/min per mg; `C=CCN=C=S` [AITC, allyl isothiocyanate]: 3.3 ± 0.4 μmol/min per mg. On to `C[C@]12CC[C@@H]3c4ccc(O)cc4CC[C@H]3[C@@H]1CC[C@@H]2O` [17β-estradiol], for which the IC50 (as a rule, the concentration that inhibits the measured activity by half) was determined as 15.5 ± 6 µM in test [3] and 0.17 ± 0.03 µM in test [4].
